In ChEMBL document CHEMBL6103613 (J Med Chem, 2025):
≈ marks a conversion by molar mass, not a printed value. Calls of active or inactive are those of the source. No cut-off for these calls is given here.

Assays:
[1] = system: Staphylococcus aureus; assay: Antimicrobial activity against methicillin-resistant Staphylococcus aureus clinical isolate 3 assessed as inhibition of visible bacterial growth incubated for 18 hrs by CLSI based analysis; type: functional
[2] = system: Bacillus subtilis; assay: Antimicrobial activity against Bacillus subtilis ATCC 23875 assessed as inhibition of visible bacterial growth incubated for 18 hrs by CLSI based analysis; type: functional
[3] = system: Enterococcus faecium; assay: Antimicrobial activity against vancomycin-resistant Enterococcus faecium assessed as inhibition of visible bacterial growth incubated for 18 hrs by CLSI based analysis; type: functional
[4] = system: Enterococcus gallinarum; assay: Antimicrobial activity against Enterococcus gallinarum ATCC 49573 assessed as inhibition of visible bacterial growth incubated for 18 hrs by CLSI based analysis; type: functional
[5] = system: Staphylococcus epidermidis; assay: Antimicrobial activity against Staphylococcus epidermidis ATCC 12228 assessed as inhibition of visible bacterial growth incubated for 18 hrs by CLSI based analysis; type: functional
[6] = Hemolytic activity against mouse Red blood cell incubated for 1 hr; type: toxicity, cell-based; conditions: erythrocyte
[7] = Therapeutic index, ratio of HC5 for hemolytic activity in mouse Red blood cell to MIC for antimicrobial activity against Staphylococcus aureus ATCC 25923 assessed as inhibition of visible bacterial growth; type: toxicity, cell-based, RBC; conditions: red blood cells, read-out: TI
[8] = system: Staphylococcus aureus; assay: Antimicrobial activity against Staphylococcus aureus assessed as inhibition of visible bacterial growth incubated for 18 hrs by CLSI based analysis; type: functional
[9] = system: Staphylococcus aureus; assay: Antimicrobial activity against Staphylococcus aureus assessed as reduction in bacterial growth at 2 times MIC incubated for 2 hrs by time-killing assay; type: functional; parameters: scale not given: the % may be the effect or the level left
[10] = system: Staphylococcus aureus; assay: Antibiofilm activity in Staphylococcus aureus assessed as biofilm eradication at 8 times MIC relative to control; type: functional
[11] = system: Staphylococcus aureus; assay: Induction of ROS production in Staphylococcus aureus assessed as increase in fluorescence intensity at 2 times MIC by DCFH-DA probe based assay; type: functional, organism-based
[12] = system: Staphylococcus aureus; assay: Upregulation of thiol peroxidase expression in Staphylococcus aureus at 12.5 microg/ml incubated for 3 hrs by RNA sequencing analysis; type: functional, organism-based; conditions: dose 12.5 µg/ml
[13] = system: Staphylococcus aureus; assay: Upregulation of catalase expression in Staphylococcus aureus at 12.5 microg/ml incubated for 3 hrs by RNA sequencing analysis; type: functional, organism-based; conditions: dose 12.5 µg/ml
[14] = system: Staphylococcus aureus; assay: Upregulation of ahpF expression in Staphylococcus aureus at 12.5 microg/ml incubated for 3 hrs by RNA sequencing analysis; type: functional; conditions: dose 12.5 µg/ml
[15] = system: Staphylococcus aureus; assay: Upregulation of ahpC6 expression in Staphylococcus aureus at 12.5 microg/ml incubated for 3 hrs by RNA sequencing analysis; type: functional; conditions: dose 12.5 µg/ml
[16] = system: Staphylococcus aureus; assay: Upregulation of CwrA expression in Staphylococcus aureus at 12.5 microg/ml incubated for 3 hrs by RNA sequencing analysis; type: functional; conditions: dose 12.5 µg/ml
[17] = system: Staphylococcus aureus; assay: Upregulation of TarF expression in Staphylococcus aureus at 12.5 microg/ml incubated for 3 hrs by RNA sequencing analysis; type: functional; conditions: dose 12.5 µg/ml
[18] = system: Staphylococcus aureus; assay: Upregulation of dltD expression in Staphylococcus aureus at 12.5 microg/ml incubated for 3 hrs by RNA sequencing analysis; type: functional; conditions: dose 12.5 µg/ml
[19] = system: Staphylococcus aureus; assay: Upregulation of fmtA expression in Staphylococcus aureus at 12.5 microg/ml incubated for 3 hrs by RNA sequencing analysis; type: functional; conditions: dose 12.5 µg/ml
[20] = system: Staphylococcus aureus; assay: Antimicrobial activity against Staphylococcus aureus at pH 5.4 to 6.4 incubated for 0.5 hrs; type: functional, organism-based
[21] = system: Staphylococcus aureus; assay: Antimicrobial activity against Staphylococcus aureus incubated for 0.5 hrs in presence of NA+; type: functional, organism-based
[22] = system: Staphylococcus aureus; assay: Antimicrobial activity against Staphylococcus aureus incubated for 0.5 hrs in presence of K+; type: functional, organism-based
[23] = system: Staphylococcus aureus; assay: Antimicrobial activity against Staphylococcus aureus incubated for 0.5 hrs in presence of Ca2+; type: functional, organism-based
[24] = Toxicity in mouse assessed as change in behavior at 50 mg/kg, ip measured for 7 days; type: organism-based; conditions: in vivo, 168 h, time 7 day
[25] = Toxicity in mouse assessed as signs of drowsiness at 50 mg/kg, ip measured for 7 days; type: organism-based; conditions: in vivo, 168 h, time 7 day
[26] = Toxicity in mouse assessed as change in water intake at 50 mg/kg, ip measured for 7 days; type: organism-based; conditions: in vivo, 168 h, time 7 day
[27] = Toxicity in mouse assessed as liver damage at 50 mg/kg, ip measured for 7 days by H and E staining based analysis; type: organism-based; conditions: in vivo, 168 h, time 7 day
[28] = Toxicity in mouse assessed as spleen damage at 50 mg/kg, ip measured for 7 days by H and E staining based analysis; type: organism-based; conditions: in vivo, 168 h, time 7 day
[29] = system: Staphylococcus aureus; assay: Antibacterial activity against methicillin-resistant Staphylococcus aureus infected in kunming mouse peritonitis model assessed as reduction in bacterial colonies in blood at 5 mg/kg, ip measured upto 8 days; type: functional, organism-based; conditions: time <= 8.0 day
[30] = system: Staphylococcus aureus; assay: Antibacterial activity against methicillin-resistant Staphylococcus aureus infected in kunming mouse peritonitis model assessed as reduction in bacterial colonies in lung at 5 mg/kg, ip measured upto 8 days; type: functional, organism-based; conditions: time <= 8.0 day
[31] = system: Staphylococcus aureus; assay: Antibacterial activity against methicillin-resistant Staphylococcus aureus infected in kunming mouse peritonitis model assessed as reduction in bacterial colonies in spleen at 5 mg/kg, ip measured upto 8 days; type: functional, organism-based; conditions: time <= 8.0 day
[32] = Toxicity in mouse assessed as organ damage by measuring thickened alveolar wall in lungs at 5 mg/kg, ip measured upto 8 days; type: organism-based; conditions: in vivo, 192 h, time < 8 day

SMILES: CC(C)[C@@H]1NC(=O)[C@@H](C(C)C)NC(=O)[C@H](C(C)C)NC(=O)[C@@H](CCCCN)NC(=O)[C@H](Cc2c(C(c3ccccc3)(c3ccccc3)c3ccccc3)[nH]c3ccccc23)NC(=O)[C@@H](C(C)C)NC(=O)[C@@H]2CSC1N2
- MIC [1]: 12.5 µg/mL (≈ 12 µM)
- MIC [2]: 6.25 µg/mL (≈ 6.01 µM)
- MIC [3]: 12.5 µg/mL (≈ 12 µM)
- MIC [4]: 12.5 µg/mL (≈ 12 µM)
- MIC [5]: 6.25 µg/mL (≈ 6.01 µM)
- HC5 [6]: > 100 µg/mL
- selectivity ratio [7]: > 16
- MIC [8]: 3.13 µg/mL (≈ 3.01 µM)
- Activity [9]: >99%
- Activity [10]: 90%
- Activity [11]: Active
- Activity [12]: Active
- Activity [13]: Active
- Activity [14]: Active
- Activity [15]: Active
- Activity [16]: Active
- Activity [17]: Active
- Activity [18]: Active
- Activity [19]: Active
- Activity [20]: Active
- Activity [21]: Active
- Activity [22]: Active
- Activity [23]: Active
- Activity [24]: Non-toxic
- Activity [25]: Non-toxic
- Activity [26]: Non-toxic
- Activity [27]: Non-toxic
- Activity [28]: Non-toxic
- Activity [29]: Active
- Activity [30]: Active
- Activity [31]: Active
- Activity [32]: Non-toxic
